Data reported in patent US9642835B2, “Modulators of GTPase and use in relevant treatment” (STC.UNM, priority 2010, dated 2017).
Read-outs that look alike come from different tables or passages of the source.

Experiments:
Cdc42 WT = molecular target: T1, Cdc42 WT (Homo sapiens, UniProt P60953); test: Bead-based flow cytometry dose response, BODIPY-FL-GTP binding; conditions: for EC50: read-out: Cdc42 WT EC50; for Emax: read-out: Cdc42 WT Efficacy
T1 construct: purchased Cytoskeleton
Description: (§1) Bead sets for multiplex assays were custom synthesized by Duke Scientific Corp (Fremont, Calif.), but may now be ordered from Thermo/Fisher. […] Negative controls, contained the bead mixture with fluorescent GTP, 0.5 mM unlabeled GTP as a competitor, and 1% DMSO. […] The resulting time-dependent data (one file per plate) were analyzed using IDLQuery software to determine the compound activity in each well. Gating based on forward scatter (FS) and side scatter (SS) parameters was used to identify singlet bead populations. Gating based on FL8 emission distinguishes the beads coated with different proteins, and the median fluorescence per bead population was calculated. […] Baselines were set to 100% based on measurements from the 1% DMSO containing positive controls as further described in PubChem. {PubChem #72}
(§2) Briefly, compounds were serially diluted 1:3 a total of eight times from a starting concentration of 10 mM giving a 9-point dilution series in DMSO. The final concentrations of inhibitors in the assay ranged from 10 nM to 100 μM. Dose-response analyses were examined in the presence of NP-HPS buffer containing: a) 1 mM EDTA; or b) 1 mM MgCl2. […] For assays with EDTA we used one multiplex (Rab7 wt, Rab2 wt, H-Ras wt, H-RasG12V, Cdc42 wt, and Cdc42Q61L) and 3 single-plexes (for Rac1 wt, Rac1 Q61L and GST-GFP).
(§3) GTPase activators were identified on the basis of an increase in fluorescent GTP-binding.
(§4) In experiments including magnesium, six GST-GTPases were assayed simultaneously in a single multiplex (Rac1 wt, Rac1Q61L, RhoA wt, RhoAL63, Cdc42 wt and Cdc42Q61L) and 1 nM BODIPY-FL-GTP binding was measured in the presence or absence of the serial drug dilution series. Each dose response series was run in duplicate.

Cdc42 ACT (Cdc42Q61L) = Cdc42 ACT (Cdc42Q61L) (Homo sapiens, UniProt P60953, Q61L); test: as above
Chain of Cdc42 ACT (Cdc42Q61L) (P60953 whole entry Q61L): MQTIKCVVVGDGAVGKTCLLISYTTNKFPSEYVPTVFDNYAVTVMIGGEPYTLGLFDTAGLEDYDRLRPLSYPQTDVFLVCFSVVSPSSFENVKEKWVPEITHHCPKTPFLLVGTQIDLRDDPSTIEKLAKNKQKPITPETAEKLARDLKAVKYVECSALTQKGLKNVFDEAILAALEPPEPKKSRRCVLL
Description: as §1, §2, §3, §4

wild-type Cdc42 = molecular target: T2, wild-type Cdc42 (Homo sapiens, UniProt P60953); test: Equilibrium binding assay of BODIPY-FL-GTP; conditions: 1.5 nM substrate, 1 mM MgCl2; read-out: IC50, inhibition of fluorescent GTP binding to Cdc42 wt
T2 construct: purchased Cytoskeleton
T2 sequence (P60953 whole entry): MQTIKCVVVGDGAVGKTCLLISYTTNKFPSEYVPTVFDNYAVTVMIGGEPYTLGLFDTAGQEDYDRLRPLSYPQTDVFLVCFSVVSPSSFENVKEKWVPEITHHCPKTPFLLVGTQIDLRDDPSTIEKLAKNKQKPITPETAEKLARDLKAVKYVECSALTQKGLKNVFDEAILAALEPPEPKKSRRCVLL
Description: Changes in GTP binding affinity (Kd) and Bmax in the presence of a given compound were measured in multiplex (Cdc42, Cdc42Q61L, Rab2, Rab7, H-Ras and H-RasG12V) and single-plex formats (Rac1, Rac1Q61L and GST-GFP). GTPases and the GST-GFP control were individually bound to glutathione beads overnight at 4° C., washed with HPSE buffer, then resuspended together or assayed individually in the same buffer containing DTT and BSA. Bound GTPases were analyzed by mixing 5 μl protein-bound beads with 2.5-100 nM BODIPY-GTP in a total volume of 10 μl and incubating with rotation at 4° C. for 90 min. DMSO controls and samples treated with 10 μM of each test compound were run in parallel. Bound fluorescent nucleotide was measured using a Cyan ADP flow cytometer. Data were converted to ASCII format using IDLeQuery, exported and analyzed using Prism (GraphPad Software, Inc., San Diego, Calif.) non-linear, one-site binding.
Wild-type GST-Cdc42 (4 μM) was bound to GSH-beads overnight at 4° C. Cdc42 on GSH-beads was depleted of nucleotide by incubating with 10 mM EDTA containing buffer for 20 min at 30° C., washing twice with NP-HPS buffer, then re-suspended in the same buffer containing 1 mM EDTA/or 1 mM MgCl2, 1 mM DTT and 0.1% BSA. […] Samples incubated at 4° C. for 45 min and binding of fluorescent nucleotide to enzyme measured using an Accuri flow cytometer. […]

[1] = test system: Cdc42, Rab2, Rab7, activated Rac1Q61L, Rac1, and H-Ras; test: Multiplexed primary screen, fluorescent GTP binding; conditions: 10 μM compound
Description: Multiplex screening was performed by measuring GTP-binding activities of six GTPases (Cdc42, Rab2, Rab7, activated Rac1Q61L, Rac1, and H-Ras) simultaneously using special glutathione (GSH) bead sets having varied fluorescence intensities at a fixed wavelength^38. Individual GST-GTPase chimeras were tested against approximately 200,000 small molecules from the Molecular Libraries Small Molecule Repository (MLSMR). Results of fluorescent GTP-binding from the entire primary screen are summarized in the open access Pubchem database as required for projects conducted under the Roadmap Initiative (AID 757-761, 764). […] In total 1877 compounds/194,635 were identified as activators or inhibitors in the primary screen. On the order of 100-500 compounds were found active per GTPase target, enabling an unprecedented, comprehensive evaluation of small molecules active against various Ras-related GTPase family members. Here we report one compound active specifically on Cdc42 and structure activity relationships determined through chemical synthesis.
Multiplex analysis of small GTPases, were performed as we have described previously {Surviladze, 2009}. […] Flow cytometric light scatter and fluorescence emission at 530+/−20 nm (FL1) and 665+/−10 nm (FL8) were collected on a Cyan ADP flow cytometer (Beckman Coulter, Fullerton, Calif.). The resulting time-dependent data (one file per plate) were analyzed using IDLQuery software to determine the compound activity in each well. […] Gating based on FL8 emission distinguishes the beads coated with different proteins, and the median fluorescence per bead population was calculated. […]
For detection of GTP binding to small G-proteins we used bead-based multiplex flow cytometry assay {Surviladze, 2009}. […] Six individual GST-GTPases representative of Rho, Ras and Rab branches of the Ras-related GTPase family (Cdc42 wt, Rac1 wt, Rac1Q61L, Rab2 wt, Rab7 wt, and H-Ras wt) were first bound to GSH-beads of a particular fluorescence intensity. […]

[2] = Table 6, R3 analogs, read-out: Cdc42 ACT EC50
[3] = Table 5, R2 analogs, read-out: Cdc42 ACT EC50

T1 sequence (P60953 whole entry): as above

Row | SMILES | EC50 (Cdc42 WT; Table 6, R3 analogs) | Emax (Cdc42 WT; Table 6, R3 analogs) | EC50 (Cdc42 ACT (Cdc42Q61L); [2]) | EC50 (Cdc42 WT; Table 5, R2 analogs) | Emax (Cdc42 WT; Table 5, R2 analogs) | also measured
1 | NS(=O)(=O)c1ccc(N2N=C(c3ccccc3)CC2c2ccc(Cl)cc2)cc1 (stereo not drawn) [CID 13927311] | 2.8 µM | 69% | 3.6 µM |  |  | 
2 | COc1ccc(C2=NN(c3ccc(S(N)(=O)=O)cc3)C(c3ccc(OC)cc3)C2)cc1 (stereo not drawn) [CID 15201811] |  |  |  | 2.6 µM | 38% | EC50 (Cdc42 ACT (Cdc42Q61L); [3]): 2.5 µM
3 | NS(=O)(=O)c1ccc(N2N=C(c3ccccc3)CC2c2cccc(Cl)c2)cc1 (stereo not drawn) [CID 44193696] | 3.3 µM | 64% | 3.6 µM |  |  | 
4 | COc1ccc(C2CC(c3ccccc3)=NN2c2ccc(S(N)(=O)=O)cc2)cc1OC (stereo not drawn) [CID 2971684] | 5.7 µM | 75% |  |  |  | EC50 (Cdc42 ACT (Cdc42Q61L)): 6.1 µM
5 | COc1ccc(C2CC(c3ccccc3)=NN2c2ccc(S(N)(=O)=O)cc2)cc1OC (stereo not drawn) [MLS000862339] |  |  |  |  |  | IC50 (wild-type Cdc42): 0.4 µM; Outcome of primary screening [1]: specific inhibitors
6 | NS(=O)(=O)c1ccc(N2N=C(c3ccccc3)CC2c2ccccc2)cc1 (stereo not drawn) [CID 2837695] | 31.6 µM | 56% | 16.8 µM |  |  | 
7 | COc1ccc(C2CC(c3ccsc3)=NN2c2ccc(S(N)(=O)=O)cc2)cc1 (stereo not drawn) [CID 44143713] |  |  |  | 7.3 µM | 47% | EC50 (Cdc42 ACT (Cdc42Q61L); [3]): 7.3 µM
8 | COc1ccc(C2CC(c3cccc(OC)c3)=NN2c2ccc(S(N)(=O)=O)cc2)cc1 (stereo not drawn) [CID 44143698, 4-[5-(3-methoxyphenyl)-3-(4-methoxyphenyl)-3,4-dihydropyrazol-2-yl]benzenesulfonamide] |  |  |  | 1.5 µM | 50% | EC50 (Cdc42 ACT (Cdc42Q61L); [3]): 1.6 µM
9 | COc1ccc(C2CC(c3ccccc3OC)=NN2c2ccc(S(N)(=O)=O)cc2)cc1 (stereo not drawn) [CID 44143702] |  |  |  | 6 µM | 59% | Cdc42 WT Efficacy (Cdc42 WT; Table 5, R2 analogs): 59%; EC50 (Cdc42 ACT (Cdc42Q61L); [3]): 5.5 µM
10 | O=C(O)c1cccnc1SCCc1ccccc1 [CID888706] |  |  |  |  |  | Outcome of primary screening [1]: activator
11 | COc1ccc(C2CC(C)=NN2c2ccc(S(N)(=O)=O)cc2)cc1 (stereo not drawn) [CID 14870296] |  |  |  | > 100 µM | 17% | EC50 (Cdc42 ACT (Cdc42Q61L); [3]): > 100 µM
12 | COc1ccc(C2CC(c3cccs3)=NN2c2ccc(S(N)(=O)=O)cc2)cc1 (stereo not drawn) [CID 44143712] |  |  |  | 2.9 µM | 57% | EC50 (Cdc42 ACT (Cdc42Q61L)): 4 µM
13 | COc1ccc(C2CC(C(C)(C)C)=NN2c2ccc(S(N)(=O)=O)cc2)cc1 (stereo not drawn) [CID 44193701] |  |  |  | > 100 µM | 33% | EC50 (Cdc42 ACT (Cdc42Q61L); [3]): > 100 µM
14 | COc1cccc(C2CC(c3ccccc3)=NN2c2ccc(S(N)(=O)=O)cc2)c1 (stereo not drawn) [CID 44143701] | 4.8 µM | 53% | 4.3 µM |  |  | 
15 | Cc1ccccc1C1CC(c2ccccc2)=NN1c1ccc(S(N)(=O)=O)cc1 (stereo not drawn) [CID 44143704] | 16.6 µM | 55% | 13.6 µM |  |  | 
16 | NS(=O)(=O)c1ccc(N2N=C(c3ccccc3)CC2c2cccc(F)c2)cc1 (stereo not drawn) [CID 12005853] | 4.9 µM | 71% | 9.6 µM |  |  | 
17 | NS(=O)(=O)c1ccc(N2N=C(c3ccccc3)CC2c2ccccc2Br)cc1 (stereo not drawn) [CID 44216862] | > 100 µM |  | > 100 µM |  |  | 
18 | NS(=O)(=O)c1ccc(N2N=C(c3ccccc3)CC2c2cccc(Br)c2)cc1 (stereo not drawn) [CID 44143703] | 3.3 µM | 55% | 3.7 µM |  |  | 
19 | COc1ccccc1C1CC(c2ccccc2)=NN1c1ccc(S(N)(=O)=O)cc1 (stereo not drawn) [CID 42628035] | 22.5 µM | 45% | 78.9 µM |  |  | 
20 | NS(=O)(=O)c1ccc(N2N=C(c3ccccc3)CC2c2ccccc2Cl)cc1 (stereo not drawn) [CID 44193697] | 7.2 µM | 39% | 7.4 µM |  |  | 
21 | NS(=O)(=O)c1ccc(N2N=C(c3ccccc3)CC2c2ccc(Br)cc2)cc1 (stereo not drawn) [CID 13927312, 4-[3-(4-bromophenyl)-5-phenyl-3,4-dihydropyrazol-2-yl]benzene sulfonamide] | 1.1 µM | 56% | 1.7 µM |  |  | 
